{"source": "paper PMC11656837", "about": "“pH-Responsive Peptide Nanoparticles Deliver Macromolecules to Cells via Endosomal Membrane Nanoporation” (ACS Nano, 2024)", "key": {"[1]": {"system": "Chinese Hamster Ovary (CHO) cells", "assay": "Cytosolic delivery of yellow fluorescent protein (confocal microscopy)", "format": "cell-based", "conditions": "25 μM peptide, 3.5 μM external YFP, 37 °C", "experimental": "(§1) To validate the dextran delivery experiments, we also delivered two separate fluorescent proteins of ∼27 kDa molecular weight to the cytosol of two different cell lines using C16-D-pHD108 (see Figure 7). HeLa cells were incubated overnight with 10 μM green fluorescent protein (GFP), and Chinese Hamster Ovary (CHO) cells were incubated overnight with 3.5 μM yellow fluorescent protein (YFP), with and without 25 μM C16-D-pHD108. Just before imaging, external GFP and YFP were washed off and replaced with TAMRA-dextran (red) or fluorescent protein mTurquoise (blue), respectively, to mark the cell boundaries and extracellular spaces. […] These cells, especially those incubated with the higher 10 μM concentration of GFP, show endosomes with entrapped FP, just as we observed for dextran delivery. […] The apparent nuclear concentration of GFP in cells incubated with GFP but no peptide is indistinguishable from the background. With an external concentration of 3.5 μM, the YFP concentration delivered to the cell cytosol ranges from 1 to 3 μM, with a median of about 1.2 μM or 35% of the external concentration. The apparent cytosolic concentration of YFP in cells incubated with YFP but no peptide is indistinguishable from the background. We also performed YFP delivery experiments at a 4 h time point, Supplemental Figure S4. […]\nFor fluorescent protein or fluorescein-(Fab)2 fragment delivery, HeLa cells were incubated at 37 °C overnight in the presence of GFP with and without C16-D-pHD108 and CHO cells were incubated at 37 °C overnight with YFP in the presence and absence of C16-D-pHD108. […] Quantitation of delivered protein was performed by comparing measured intensities from microscopy images of standard protein solutions of known concentrations. […]\nE. YFP intensities from the nuclei and cytosol of the cells in panels A,B and C,D. The dotted lines are the intensities of standard reference solution of media only and 3.5 µM YFP measured at the same time under identical conditions. […]"}, "[2]": {"assay": "Tryptophan fluorescence emission (water exposure of Trp19)", "format": "physicochemical", "conditions": "buffer pH 7, no vesicles, 25 μM peptide in PBS", "excerpt": "Here, in Figure 8, we examine the solution behavior of C16-D-pHD108 using tryptophan fluorescence to measure the water exposure of the tryptophan residue at position 19, Figure 1, and using circular dichroism spectroscopy to measure the secondary structure.\nIn Figure 8B, we show tryptophan emission spectra for the same three samples."}, "[3]": {"experimental": "This was done by incubating 50 μM peptide under each experimental condition for 60 min, followed by centrifugation at 1400g to remove large aggregates, and by subsequent centrifugation at 11,000g to remove intermediate aggregates. Peptide concentration in solution before and after centrifugation was determined by reverse phase HPLC.\nDried peptides were reconstituted in 50 μL of PBS at pH 7 or at pH 5. The solutions were bath-sonicated briefly and incubated at room temperature for 30 min. Three aliquots of each sample were removed for analysis: one before centrifugation, one after centrifugation for 5 min at 1400g, and one after centrifugation for 10 min at 11,000g. These aliquots were diluted and analyzed by reverse phase HPLC. The integrated peak area of the tryptophan fluorescence peak was determined for each sample."}, "HeLa cells [4]": {"system": "HeLa cells", "conditions": "40 nM PE-III", "excerpt": "For this, we use PE-III, the third domain of the Pseudomonas exotoxin. This 25 kDa enzyme ADP ribosylates ribosomal elongation factor 2, thereby blocking protein synthesis and triggering apoptosis. […] Thus, apoptosis will occur only if an exogenous agent, such as a peptide, enables cytosolic delivery of the 4 × 3 nm PE-III protein, Figure 2A.\nComparison of peptide concentration midpoints requires a constant concentration of PE-III in each experiment. […] The major disadvantage of the PE-III assay to detect delivery is that only a few molecules of active PE-III delivered to the cytosol[36] will produce a positive result. To partly mitigate this effect in the assays described below, we use a constant 40 nM PE-III. At such a low concentration, each endosome will contain an average of fewer than one PE-III molecule if we assume passive entrapment of the cargo (see the Supporting Information).\nThe no treatment (no tx) control group contained cells but no peptide or PE-III enzyme. The Alamar Blue intensity of this group was defined as 100% viability. Media alone without cells was defined as 0% viability.\nThe concentration range used for each peptide was adjusted according to preliminary measurements of activity in this assay. We assessed PE-III delivery by measuring cell viability using Alamar Blue.\nFifteen thousand HeLa cells were seeded in a clear bottom, black-walled 96-well plate overnight at 37 °C with 5% CO2 in complete media (DMEM + phenol red +10% FBS + antimycotic/antibiotic + nonessential amino acids). Cells were then washed once in PBS and treated with PE-III and peptide in serum-free media without phenol red, with a 50 μL total volume. After a 2-day incubation with treatment, 50 μL of 10% Alamar blue reagent diluted in serum-free media was added directly to each well (5% Alamar blue final) and incubated for 1.5 h at 37 °C. The plate was then read at 550 equiv/590 em on a Biotek plate reader. Untreated cells were used as a negative control, and MelP5-treated cells served as a positive control."}, "HeLa cells [5]": {"system": "HeLa cells", "assay": "Cytosolic delivery of green fluorescent protein (confocal microscopy)", "format": "cell-based, human", "conditions": "25 μM peptide, 10 μM external GFP, overnight, 37 °C", "experimental": "as §1, with “background.” for “background. With an external concentration of 3.5 μM, the YFP concentration delivered to the cell cytosol ranges from 1 to 3 μM, with a median of about 1.2 μM or 35% of the external concentration. The apparent cytosolic concentration of YFP in cells incubated with YFP but no peptide is indistinguishable from the background. We also performed YFP delivery experiments at a 4 h time point, Supplemental Figure S4.”\nFor fluorescent protein or fluorescein-(Fab)2 fragment delivery, HeLa cells were incubated at 37 °C overnight in the presence of GFP with and without C16-D-pHD108 and CHO cells were incubated at 37 °C overnight with YFP in the presence and absence of C16-D-pHD108. […] Quantitation of delivered protein was performed by comparing measured intensities from microscopy images of standard protein solutions of known concentrations."}}, "data": [{"smiles": "CCCCCCCCCCCCCCCC(=O)NCC(=O)N[C@@H](C(=O)NCC(=O)N[C@H](CCC(=O)O)C(=O)N[C@@H](C(=O)N[C@H](CC(C)C)C(=O)N[C@H](Cc1c[nH]cn1)C(=O)N[C@H](CCC(=O)O)C(=O)N[C@H](CC(C)C)C(=O)N[C@H](C)C(=O)N[C@H](CCC(=O)O)C(=O)NCC(=O)N[C@H](CC(C)C)C(=O)N1CCC[C@@H]1C(=O)N[C@H](CCC(=O)O)C(=O)N[C@H](CC(C)C)C(=O)N[C@H](CCC(N)=O)C(=O)N[C@H](CCC(=O)O)C(=O)N[C@H](Cc1c[nH]c2ccccc12)C(=O)N[C@@H](C(=O)N[C@H](Cc1c[nH]cn1)C(=O)N[C@H](C)C(=O)N[C@H](C)C(=O)N[C@H](CCC(N)=O)C(=O)N[C@H](CCC(N)=O)C(=O)N[C@H](CC(C)C)C(N)=O)[C@H](C)CC)C(C)C)[C@H](C)CC", "note": "[C16-D-pHD108]", "values": [{"measurement": "YFP delivered to cytosol, median as percent of the external solution", "setting": "[1]; 4 h", "result": "about 13%"}, {"measurement": "YFP concentration delivered to cell cytosol, median", "setting": "[1]; overnight", "result": "about 1.2 μM"}, {"measurement": "YFP delivered to cytosol, median as percent of the external concentration", "setting": "[1]; overnight", "result": "~35", "unit": "%"}, {"measurement": "tryptophan fluorescence emission maximum", "setting": "[2]", "result": 330, "unit": "nm"}, {"measurement": "solubility after dissolving at pH 7 and decreasing to pH 5", "setting": "[3]; 50 μM, pH 7 then pH 5, centrifugation, reverse phase HPLC", "result": "became insoluble"}, {"measurement": "solubility at pH 5", "setting": "[3]; from dried peptide, 50 μM in PBS pH 5, centrifugation 1400g then 11,000g, reverse phase HPLC", "result": "almost none of the peptides went into solution"}, {"measurement": "solubility and stability to centrifugation at pH 7", "setting": "[3]; from dried peptide, 50 μM in PBS pH 7, bath sonication, 60 min, room temperature, centrifugation 1400g then 11,000g, reverse phase HPLC (Trp fluorescence peak area)", "result": "remains soluble at pH 7 and is not removed by centrifugation"}, {"measurement": "solubility in buffer / PBS at pH 7", "setting": "[3]; pH 7, buffer or PBS", "result": "soluble in PBS and remained in solution at pH 7 for days"}, {"measurement": "cells that undergo apoptosis", "setting": "HeLa cells [4]; 10 μM peptide", "result": "> 98", "unit": "%"}, {"measurement": "fold increase in activity over unmodified pHD108", "setting": "HeLa cells [4]; from EC50 in HeLa", "result": 74, "unit": "fold"}, {"measurement": "EC50", "setting": "HeLa cells [4]; read-out: EC50 (peptide concentration midpoint for PE-III-dependent apoptosis), HeLa, serum-free media, 48 h, 37 °C, Alamar Blue", "result": 1900, "unit": "nM"}, {"measurement": "GFP concentration delivered to cell cytosol, median", "setting": "HeLa cells [5]", "result": "about 2 μM"}, {"measurement": "GFP delivered to cytosol, median as percent of the external concentration", "setting": "HeLa cells [5]", "result": "~20", "unit": "%"}]}]}
